Data from PMC3734285, “Expression and Function of the Lipocalin-2 (24p3/NGAL) Receptor in Rodent and Human Intestinal Epithelia” (PLoS ONE, 2013).
Read-outs that look alike come from different tables or passages of the source. Numbered stars: 1 amine (or outer) side, 2 acyl side, 3 side chain; on linkers, the order of the positions; unused ones are H or OH. Square brackets hold non-standard residues; d marks the D form. Peptide text beside a SMILES is read from it. * marks the point of attachment. X1 = N=c1ccc2c(-c3ccc(C(=O)*)cc3C(=O)O)c3ccc(N)c(S(=O)(=O)O)c3oc-2c1S(=O)(=O)O; γGlu = O=C(O)[C@H](CCC(=O)[*:2])N[*:1]

Columns and labels:
[1] = system: colon-like Caco-2 BBE cell monolayers; assay: Apical-to-basolateral transcytosis of fluorescence-labelled ligands across Transwell monolayers; assay type: in vitro ADME, human; details: colon-like Caco-2 BBE monolayers on Transwell, A-B, 700 nM ligand apical, control conditions (no hNGAL), fluorescence read-out; means ± SEM, n = 9-14
Procedure: For transyctosis studies Costar Transwell® culture inserts placed on 24-well plates were used (0.4 µM PE membrane, 0.33 cm^2 filter area. Corning Inc., Corning, NY, USA). Briefly, 1.3 ml of Caco-2 BBE medium with 10% FBS was added to the basolateral compartment and Caco-2 BBE colon-like cells were plated at a density of 5 x 10^4 cells/insert in 400 µl medium with 10% FBS added to the apical compartment. The transepithelial electrical resistance (TEER) across the cell monolayer was measured after 0, 24, 48, 72 h culture as well as before and after each experiment. The medium was replaced after 48 h on both, top (apical) and bottom (basolateral) compartments of the culture inserts. […] Before each experiment, the apical medium was replaced by 400 µl medium containing 1% FBS medium and the appropriate fluorescence-labelled ligand at a final concentration of 700 nM with or without 500 pM hNGAL whereas the basolateral medium with 10% FBS remained unchanged. At each experimental time point, 10 µl of the basolateral and the apical medium was removed, frozen at -80° C and subsequently analyzed for fluorescence intensity using standard capillaries in a Monolith NT.015 (NanoTemper Technologies GmbH, Munich, Germany). Data were quantified by semi-logarithmic plotting against standards obtained from stock solutions of fluorescent ligands. […]

[2] = system: colon-like Caco-2 BBE cells; assay: Internalization of fluorescence-labelled ligands, immunofluorescence microscopy; assay type: cell-based, human; details: for Kd: 24 h, up to 5.6 µM A488-PC3, FBS-free medium, 5-6 experiments
Procedure: The full-length clone of rat r24p3-R was transiently transfected into CHO cells 24 h after seeding using Lipofectamine 2000, as described previously. Forty eight hours after transfection, r24p3-R- and empty vector (pcDNA3.1)-transfected cells were incubated for 24 h with 0-2.8 µM A488-PC3, as described previously for A546-MT [24]. Colon- or duodenum-like Caco-2 BBE cells were seeded at a density of 50,000 cells/coverslip and grown for 48 h before addition of different concentrations of A488-PC3 or A546-MT ± hNGAL for 24 h in FBS-free medium. Cells were stained with primary α-NT-24p3-R antibody (1:100) and secondary Cy3-coupled anti-rabbit IgG (1:600) for A488-PC3 uptake or with A546-conjugated anti-rabbit IgG (1:600) for A546-MT uptake.
For each experiment, 5-10 images were acquired and quantified as described earlier. For determination of r24p3-R-dependent fluorescence uptake in CHO cells, values in vector-transfected cells were subtracted from values obtained in the corresponding r24p3-R-transfected cells. […] To determine hNGAL-R-specific uptake of fluorescent dye-labeled proteins in Caco-2 BBE cells 5 images of fields with clusters of hNGAL-R expressing Caco-2 BBE cells and 5 images of clusters of Caco-2 BBE cells not expressing hNGAL-R were analyzed in the absence or presence of the ligand of the hNGAL-R, hNGAL/lipocalin-2 (500 pM).
Unless otherwise indicated, the experiments were repeated at least three times and means ± S.D. were calculated, unless otherwise indicated. Analysis by unpaired Student’s t test or one-way ANOVA assuming equality of variance with Newman-Keuls Multiple Comparison test and Dunnett’s post-hoc test was performed with GraphPad Prism 5.0. […] Transcytosis data fitted using a one-phase exponential decay function. All curve fits were done with GraphPad Prism 5.0. Results with P < 0.05 were considered to be statistically significant.

Molecule	basolateral delivery (AUC over 8 h) [1]	Kd ([2]; read-out: first app KD of A488-PC3 internalization (two-site binding fit))	Kd ([2]; read-out: second app KD of A488-PC3 internalization (two-site binding fit))	effect of 500 pM hNGAL on uptake of 0.7 µM ligand ([2]; 24 h incubation, 0.7 µM ligand with 500 pM hNGAL, 4-5 experiments)
N=c1ccc2c(-c3ccc(C(=O)N[C@@H](CCC(=O)N[C@@H](CS)C(=O)N[C@@H](CCC(=O)N[C@@H](CS)C(=O)N[C@@H](CCC(=O)N[C@@H](CS)C(=O)NCC(=O)O)C(=O)O)C(=O)O)C(=O)O)cc3C(=O)O)c3ccc(N)c(S(=O)(=O)O)c3oc-2c1S(=O)(=O)O [A488-PC3] ({X1-γGlu}-C[γGlu]C[γGlu]CG-OH; N-terminus and C-terminus assumed)	299.4 ± 18.7 nM x 8 h	~90 nM	~300 nM	significantly reduced
A546-Tf: Alexa Fluor 546-labelled transferrin from human serum (Molecular Probes)	402.4 ± 28.0 nM x 8 h			
